The target of assay [1] is T1, human enzyme NAMPT (full length) (Homo sapiens, UniProt P43490).
T1 construct: human enzyme NAMPT (full length)
In words: NMN fluorescence biochemical assay (stimulation of NMN synthesis by NAMPT). As to conditions: for EC50: concentration giving half-maximal activation, read-out: Enzymatic EC50; for Enzymatic Emax: fold change of maximal activation compared to DMSO. Summed up: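 Full-length human NAMPT (100 nM) was preincubated 15 min at 37 °C with compound in 50 mM Tris-HCl pH 7.5, 10 mM MgCl2, 2 mM DTT, then reacted 1 h at 37 °C with 50 μM NAM, 100 μM PRPP, 4 mM ATP (stated solution concentrations). NMN was derivatised with acetophenone/KOH then formic acid and read at Ex/Em 382/445 nm; EC50 and Emax (fold over DMSO) reported.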

For assay [2], the system named is endogenous NAMPT in U2OS cells. The experiment in a line: Cellular NAD+ modulation assay (NAD/NADH-Glo, U2OS cells). It is filed as cell-based. As to conditions: Homo sapiens; for maximal fold induction: read-out: Cellular Emax. Summed up: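 NAD/NADH-Glo luminescence quantified NAD+ after acid treatment (60 °C, 15 min) and neutralization of DTAB lysates. Beforehand, U2OS cells seeded 16 h earlier received compound concentration series for 24 h at 37 °C. Values given as half-maximal activation concentration (EC50) and maximal fold change versus DMSO (Emax).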

[3] abbreviates: NMN fluorescence assay, purified human NAMPT 100 nM.
[4] abbreviates: 24 hours incubation, cellular NAD+.
The mark [5] stands for this setting: NMN synthesis by purified human NAMPT (100 nM).
Where [6] appears, read: 24 hours incubation with compound.

Read-outs that look alike come from different tables or passages of the source.

T1 sequence (P43490 whole entry): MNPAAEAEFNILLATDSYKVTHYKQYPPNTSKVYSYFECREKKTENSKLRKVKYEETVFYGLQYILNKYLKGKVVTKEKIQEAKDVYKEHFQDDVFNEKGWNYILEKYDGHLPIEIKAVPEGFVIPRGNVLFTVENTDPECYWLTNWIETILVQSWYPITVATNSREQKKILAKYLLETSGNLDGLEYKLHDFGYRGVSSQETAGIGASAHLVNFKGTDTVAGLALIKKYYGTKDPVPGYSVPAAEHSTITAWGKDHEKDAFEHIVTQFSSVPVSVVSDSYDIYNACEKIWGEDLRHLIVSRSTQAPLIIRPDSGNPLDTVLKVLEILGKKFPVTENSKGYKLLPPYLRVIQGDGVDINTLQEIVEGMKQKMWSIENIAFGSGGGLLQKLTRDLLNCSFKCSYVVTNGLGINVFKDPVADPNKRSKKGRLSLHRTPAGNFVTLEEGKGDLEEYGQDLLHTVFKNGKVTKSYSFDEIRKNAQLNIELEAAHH

As for `Cn1ncc(Cl)c1CC1c2cc(Cl)ncc2C(=O)N1CC1CC2(CNC(=O)O2)C1` (stereo not shown) [Compound 524, 2-((6-chloro-1-((4-chloro-1-methyl-1H-pyrazol-5-yl)methyl)-3-oxo-1,3-dihydro-2H-pyrrolo[3,4-c]pyridin-2-yl)methyl)-5-oxa-7-azaspiro[3.4]octan-6-one], the EC50 in assay [1] (setting [3]) was at least 5000 nM. Moreover, in assay [1], the “Enzymatic Emax” value is “C (2≥C)”. In assay [2] (setting [4]), the EC50 lay in the range of 500 to 5000 nM and the maximal fold induction is over 1.5.

On to `Cn1ncc(Cl)c1CC1c2cc(Br)ccc2C(=O)N1Cc1ccc2[nH]c(=O)oc2c1` (stereo not shown) [Compound 431, 6-((5-bromo-3-((4-chloro-1-methyl-1H-pyrazol-5-yl)methyl)-1-oxoisoindolin-2-yl)methyl)benzo[d]oxazol-2(3H)-one], for which the EC50 in assay [1] (setting [3]) is under 500 nM. Moreover, the “Enzymatic Emax” value in assay [1] is recorded as “A (A>3)”. Besides, in assay [2] (setting [4]), the EC50 was under 500 nM and the maximal fold induction is over 1.5.

`Cn1ncc(Cl)c1CC1c2ccccc2C(C)(C)N1C/C=C/c1c[nH]nn1` (stereo not shown) [Compound 606, (E)-2-(3-(1H-1,2,3-triazol-4-yl)allyl)-3-((4-chloro-1-methyl-1H-pyrazol-5-yl)methyl)-1,1-dimethylisoindoline]: the EC50 was 500 to 5000 nM in assay [1] (setting [3]) and under 500 nM in assay [2] (setting [4]). For the same compound, in assay [1], the “Enzymatic Emax” value is recorded as “A (A>3)”. Also, in assay [2] (setting [4]), the maximal fold induction is over 1.5.

Consider `COc1ccc(CN2C(Cc3c(Cl)cnn3C)c3ccccc3S2(=O)=O)cc1` (stereo not shown) [Compound 641, 3-((4-chloro-1-methyl-1H-pyrazol-5-yl)methyl)-2-(4-methoxybenzyl)-2,3-dihydrobenzo[d]isothiazole 1,1-dioxide], for which, in assay [1] (setting [3]), the 50% effective concentration (EC50) was at least 5000 nM. The “Enzymatic Emax” value in assay [1] was “A (A>3)”. Besides, in assay [2] (setting [4]), the EC50 is under 500 nM and the maximal fold induction is 1.2 to 1.5.

For `COc1ccc(CN2C(=O)c3ccccc3C2Cc2c(C)ccnc2C#N)cn1` (stereo not shown) [Compound 588, 3-((2-((6-methoxypyridin-3-yl)methyl)-3-oxoisoindolin-1-yl)methyl)-4-methylpicolinonitrile], in assay [1] (setting [3]), the EC50 is at least 5000 nM. Besides, the “Enzymatic Emax” value in assay [1] was “B (3≥B>2)”. Moreover, in assay [2] (setting [4]), the concentration giving a half-maximal response (EC50) lay in the range of 500 to 5000 nM and the maximal fold induction is over 1.5.

For the compound `COc1ccc(CN2C(=O)c3ccccc3C2(C)Cc2c(Cl)cnn2C)cn1` (stereo not shown) [Compound 620, 3-((4-chloro-1-methyl-1H-pyrazol-5-yl)methyl)-2-((6-methoxypyridin-3-yl)methyl)-3-methylisoindolin-1-one], the EC50 in assay [1] (setting [3]) was at least 5000 nM. The “Enzymatic Emax” value in assay [1] was “B (3≥B>2)”. In assay [2] (setting [4]), the EC50 was 500 to 5000 nM and the maximal fold induction lay within 1.2 to 1.5.

As to `Cn1ncc(Cl)c1CC1c2ccccc2C2(CC2)N1CC1CC2(CNC(=O)O2)C1` (stereo not shown) [Compound 539, 2-((3′-((4-chloro-1-methyl-1H-pyrazol-5-yl)methyl)spiro[cyclopropane-1,1′-isoindolin]-2′-yl)methyl)-5-oxa-7-azaspiro[3.4]octan-6-one], the EC50 in assay [1] (setting [3]) was at least 5000 nM. Besides, in assay [1], the “Enzymatic Emax” value is “B (3≥B>2)”. Besides, in assay [2] (setting [4]), the EC50 was in the range of 500 to 5000 nM and the maximal fold induction was 1.2 to 1.5.

In the case of `O=C1c2ccccc2C(Cc2ccccc2C(F)(F)F)N1Cc1ccc2[nH]c(=O)oc2c1` (stereo not shown) [Compound 134, 6-((1-oxo-3-(2-(trifluoromethyl)benzyl)isoindolin-2-yl)methyl)benzo[d]oxazol-2(3H)-one], the EC50 in assay [1] (setting [5]) was under 500 nM. Besides, the “Enzymatic Emax” value in assay [1] was “A (A>3)”. Besides, in assay [2] (setting [6]), the EC50 lay in the range of 500 to 5000 nM and the maximal fold induction was over 1.5.

As for `CC1c2cc(CN3CC4(COC4)C3)ccc2C(=O)N1Cc1ccc2[nH]c(=O)oc2c1` (single isomer, unassigned) [Compound 187], the EC50 in assay [1] (setting [5]) lay within 500 to 5000 nM. In addition, in assay [1], the “Enzymatic Emax” value is “B (3≥B>2)”. Moreover, in assay [2] (setting [6]), the EC50 fell in the range of 500 to 5000 nM and the maximal fold induction was over 1.5.

In the case of `O=C1c2ccccc2C(C2CC2)N1Cc1ccc2[nH]c(=O)oc2c1` (stereo not shown) [Compound 72, 6-((1-cyclopropyl-3-oxoisoindolin-2-yl)methyl)benzo[d]oxazol-2(3H)-one], the EC50 in assay [1] (setting [5]) is at least 5000 nM; in assay [2] (setting [6]) it was 500 to 5000 nM. Moreover, in assay [1], the “Enzymatic Emax” value was “A (A>3)”. In assay [2] (setting [6]), the maximal fold induction is over 1.5.

For the compound `O=C1c2ccccc2C(Cc2cccnc2)N1Cc1ccc2[nH]c(=O)oc2c1` (stereo not shown) [Compound 137, 6-((1-oxo-3-(pyridin-3-ylmethyl)isoindolin-2-yl)methyl)benzo[d]oxazol-2(3H)-one], in assay [1] (setting [5]), the EC50 was in the range of 500 to 5000 nM. Also, in assay [1], the “Enzymatic Emax” value is “B (3≥B>2)”. In addition, in assay [2] (setting [6]), the EC50 is under 500 nM and the maximal fold induction was over 1.5.

With `CCc1ccc2c(c1)C(=O)N(Cc1ccc(O)cc1)C2=O` [Compound 41, 5-ethyl-2-(4-hydroxybenzyl)isoindoline-1,3-dione], the EC50 in assay [1] (setting [5]) and in assay [2] (setting [6]) was 500 to 5000 nM in each case. Besides, the “Enzymatic Emax” value in assay [1] was “A (A>3)”. In assay [2] (setting [6]), the maximal fold induction is 1.2 to 1.5.

Consider `Cn1ncc(Cl)c1CC1c2cc(F)ccc2C(=S)N1CC1CC2(CNC(=O)O2)C1` (stereo not shown) [Compound 521, 2-((3-((4-chloro-1-methyl-1H-pyrazol-5-yl)methyl)-5-fluoro-1-thioxoisoindolin-2-yl)methyl)-5-oxa-7-azaspiro[3.4]octan-6-one], for which the EC50 is under 500 nM in assay [1] (setting [3]) and 500 to 5000 nM in assay [2] (setting [4]). Moreover, the “Enzymatic Emax” value in assay [1] is on record as “B (3≥B>2)”. In addition, the maximal fold induction in assay [2] (setting [4]) was over 1.5.

As to `CN1CCn2c(cc(Cl)c2CC2c3ccccc3C(=O)N2CC2CC3(CNC(=O)O3)C2)C1` (stereo not shown) [Compound 484, 2-((1-((7-chloro-2-methyl-1,2,3,4-tetrahydropyrrolo[1,2-a]pyrazin-6-yl)methyl)-3-oxoisoindolin-2-yl)methyl)-5-oxa-7-azaspiro[3.4]octan-6-one], the EC50 in assay [1] (setting [3]) fell in the range of 500 to 5000 nM. The “Enzymatic Emax” value in assay [1] is “B (3≥B>2)”. Also, in assay [2] (setting [4]), the EC50 was under 500 nM and the maximal fold induction lay in the range of 1.2 to 1.5.

On to `Cn1c(=O)oc2cc(CN3C(=O)c4ccccc4C3Cc3c(Br)cccc3C#N)ccc21` (stereo not shown) [Compound 552, 3-bromo-2-((2-((3-methyl-2-oxo-2,3-dihydrobenzo[d]oxazol-6-yl)methyl)-3-oxoisoindolin-1-yl)methyl)benzonitrile], for which the EC50 in assay [1] (setting [3]) was under 500 nM. Further, in assay [1], the “Enzymatic Emax” value is listed as “A (A>3)”. In assay [2] (setting [4]), the EC50 was under 500 nM and the maximal fold induction was over 1.5.

For the compound `O=C1c2ccccc2CN1Cc1ccc2[nH]nnc2c1` [Compound 289, 2-((1H-benzo[d][1,2,3]triazol-5-yl)methyl)isoindolin-1-one], the EC50 in assay [1] (setting [5]) is at least 5000 nM. The “Enzymatic Emax” value in assay [1] is reported as “C (2≥C)”. Also, in assay [2] (setting [6]), the EC50 lay within 5000 to 50000 nM and the maximal fold induction lay in the range of 1.2 to 1.5.

Regarding `Cn1nc(C2CNC2)c(Cl)c1CC1c2ccccc2C(=O)N1Cc1ccc2[nH]nnc2c1` (stereo not shown) [Compound 438, 2-((1H-benzo[d][1,2,3]triazol-5-yl)methyl)-3-((3-(azetidin-3-yl)-4-chloro-1-methyl-1H-pyrazol-5-yl)methyl)isoindolin-1-one], the EC50 in assay [1] (setting [3]) was under 500 nM. Also, the “Enzymatic Emax” value in assay [1] is on record as “B (3≥B>2)”. In assay [2] (setting [4]), the EC50 lay in the range of 500 to 5000 nM and the maximal fold induction was over 1.5.

Take `O=C1c2ccccc2C(Cc2nn(C3CC4(COC4)C3)cc2Cl)N1Cc1ccc2[nH]nnc2c1` (stereo not shown) [Compound 412, 2-((1H-benzo[d][1,2,3]triazol-5-yl)methyl)-3-((4-chloro-1-(2-oxaspiro[3.3]heptan-6-yl)-1H-pyrazol-3-yl)methyl)isoindolin-1-one]: in assay [1] (setting [3]), the EC50 was under 500 nM. Besides, the “Enzymatic Emax” value in assay [1] is “B (3≥B>2)”. Moreover, in assay [2] (setting [4]), the EC50 lay within 5000 to 50000 nM and the maximal fold induction fell in the range of 1.2 to 1.5.

`Cn1ncc(Cl)c1CC1c2cc(CN3CC4(COC4)C3)ccc2C(=O)N1CC1CC2(CNC(=O)O2)C1` (stereo not shown) [Compound 512, 2-((5-((2-oxa-6-azaspiro[3.3]heptan-6-yl)methyl)-3-((4-chloro-1-methyl-1H-pyrazol-5-yl)methyl)-1-oxoisoindolin-2-yl)methyl)-5-oxa-7-azaspiro[3.4]octan-6-one]: in assay [1] (setting [3]), the EC50 was in the range of 500 to 5000 nM. For the same compound, the “Enzymatic Emax” value in assay [1] was “B (3≥B>2)”. In addition, in assay [2] (setting [4]), the EC50 was in the range of 500 to 5000 nM and the maximal fold induction was over 1.5.

As for `COc1nn(C)c(CC2c3ccccc3C(=O)N2CC2CC3(CNC(=O)O3)C2)c1Cl` (stereo not shown) [Compound 451, 2-((1-((4-chloro-3-methoxy-1-methyl-1H-pyrazol-5-yl)methyl)-3-oxoisoindolin-2-yl)methyl)-5-oxa-7-azaspiro[3.4]octan-6-one], the EC50 in assay [1] (setting [3]) is under 500 nM. In addition, the “Enzymatic Emax” value in assay [1] is on record as “B (3≥B>2)”. In addition, in assay [2] (setting [4]), the EC50 is under 500 nM and the maximal fold induction is over 1.5.

Regarding `Cn1nc(C(F)(F)F)c(Cl)c1CC1c2ccccc2C(=O)N1Cc1ccc2[nH]nnc2c1` (stereo not shown) [Compound 362, 2-((1H-benzo[d][1,2,3]triazol-5-yl)methyl)-3-((4-chloro-1-methyl-3-(trifluoromethyl)-1H-pyrazol-5-yl)methyl)isoindolin-1-one], the EC50 in assay [1] (setting [3]) was under 500 nM. Moreover, the “Enzymatic Emax” value in assay [1] was “B (3≥B>2)”. In assay [2] (setting [4]), the EC50 was under 500 nM and the maximal fold induction was over 1.5.

Turning to `CC1c2cc(CN(C)C)ccc2C(=O)N1Cc1ccc2[nH]c(=O)oc2c1` (single isomer, unassigned) [Compound 273], the figures for the EC50 in assay [1] (setting [5]) and in assay [2] (setting [6]) were at least 5000 nM and 500 to 5000 nM, respectively. The “Enzymatic Emax” value in assay [1] is “B (3≥B>2)”. For the same compound, the maximal fold induction in assay [2] (setting [6]) was 1.2 to 1.5.

As usually defined, the EC50 is the concentration that produces a half-maximal response.

Source of the values: patent US20260078130A1, “NAMPT MODULATORS, PREPARATIONS, AND USES THEREOF” (SIRONAX LTD., priority 2022, published 2026).
